This is an account of results in patent US20080113926A1, “9A-Carbamoyl-Y-Aminopropyl- And 9A-Thiocabamoyl-Y-Aminopropyl-Azalides With Antimalarial Activity” (priority 2005, published 2008).

In brackets after ≈: the same amount, converted by molar mass.

Common to all, as to type: cell-based
For experiment [1], the system named is Plasmodium falciparum TM91C235. Kind of experiment: In vitro antimalarial [3H]-hypoxanthine incorporation serial dilution assay, TM91C235. The settings on record: P. falciparum TM91C235, parasites exposed for 72 hours; for IC50: Plasmodium falciparum.
For experiment [2], the system named is Plasmodium falciparum clone CDC/Sierra Leone I (D-6). Kind of experiment: In vitro antimalarial [3H]-hypoxanthine incorporation serial dilution assay, D6. The conditions noted are these: P. falciparum D6, parasites exposed for 72 hours; for IC50: Plasmodium falciparum. The text has this: (§1) The in vitro screens for intrinsic antimalarial activity were based on modifications of the procedures described by Desjardins R E, Canfield C J, Haynes J D, Chulay J D. (Quantitative assessment of antimalarial activity in vitro by a semiautomated microdilution technique. Antimicrob Agents Chemother. 1979 December; 16(6):710-8), Chulay J D, Haynes J D, Diggs C L. (Plasmodium falciparum: Assessment of in vitro growth by [3H]hypoxanthine incorporation. Exp. Parasitol. 1983 55:138-146), and Milhous W K, Weatherly N F, Bowdre J H, Desjardins R E. (In vitro activities of and mechanisms of resistance to antifol antimalarial drugs. Antimicrob Agents Chemother. 1985 April; 27(4):525-30). The system was limited to the assessment of the intrinsic activity against the erythrocytic asexual life cycle (blood schizontocides). Two Plasmodium falciparum clones from CDC/Indochina III (W-2) and CDC/Sierra Leone I (D-6) (Oduola A M, Weatherly N F, Bowdre J H, Desjardins R E. Plasmodium falciparum: cloning by single-erythrocyte micromanipulation and heterogeneity in vitro. Exp Parasitol. 1988 66(1):86-95) were used for all assays. TM91C235, a multiple drug resistant isolate from Thailand, was used for the prescreening assay. W-2 is resistant to chloroquine, quinine, and pyrimethamine and susceptible to mefloquine. D-6 tends to be more resistant to mefloquine and susceptible to chloroquine, quinine, and pyrimethamine. All documents cited in this paragraph are incorporated by reference in their entirety.
(§2) All parasites were maintained in continuous long term cultures in RPMI-1640 medium supplemented with 6% washed human A positive (A+) (erythrocytes, 25 mM Hepes, […], and 10% heat inactivated A+ human plasma or ALBUMAX® (lipid-rich bovine serum albumin; Invitrogen, Carlsbad, Calif.). All cultures and assays were conducted at 37° C. under an atmosphere of 5% CO2 and 5% O2, with a balance of N2.
(§3) The prescreening assay uses TM91C235 diluted at a 0.4% parasitemia in a 1% hematocrit in folic acid free and p-aminobenzoic acid free media RPMI-1640 and ALBUMAX®. One mg of the compound is typically dissolved in 100 μl of dimethyl sulfoxide (DMSO). The compound is further diluted in culture medium (FF) with ALBUMAX® for the first initial starting concentration. The rest of the stock drug solution was kept at −70° C. The isolate was preexposed, in duplicate, at three concentrations (25,000 ng/ml, 2,500 ng/ml, and 25 ng/ml) of the test compound for 48 hr in a 96-well microtiter plate (MTP) using the BIOMEK® 2000 automated laboratory workstation. Each MTP contains chloroquine as control to assess the relative activity of the compound and to monitor the response of TM91C235.
(§4) After the preincubation, [^3H]-hypoxanthine was added to each well of the MTP. (The assay relies on the incorporation of radiolabeled hypoxanthine by the parasites, which indicates reproduction, and inhibition of isotope incorporation was attributed to activity of known or candidate antimalarial drugs). After 72 hr of total incubation time, the MTP were frozen to lyse the erythrocytes and parasites. The parasite DNA was recovered by harvesting the lysate onto glass-fiber filter plates using a Packard FilterMate™ Cell Harvester. The radioactivity was counted on a Packard TopCount™ microplate scintillation counter. The results were recorded as counts per minutes (CPM) per well at each drug concentration divided by the arithmetic mean of the CPM from the three untreated infection parasite control wells.
(§5) The serial dilution assay was conducted using the same assay conditions and stock solution of the compound used for the preliminary screen, described above. Both the D-6 and the W-2 clones were used. The compounds were diluted two-fold over 11 different concentration ranges with a starting concentration that was based on the preliminary screen. […]

In experiment [3] the test system is Plasmodium falciparum clone CDC/Indochina III (W-2). The experiment in a line: In vitro antimalarial [3H]-hypoxanthine incorporation serial dilution assay, W2. The settings on record: P. falciparum W2, parasites exposed for 72 hours; for IC50: Plasmodium falciparum, W2, 72 h.
Excerpt: as §1, §2, §3, §4, §5

Regarding `CC[C@H]1OC(=O)[C@H](C)[C@@H](O[C@H]2C[C@@](C)(OC)[C@@H](O)[C@H](C)O2)[C@H](C)[C@@H](O[C@@H]2O[C@H](C)C[C@H](N(C)C)[C@H]2O)[C@](C)(O)C[C@@H](C)CN(CCCN(CCC#N)C(=O)Nc2ccc3ccccc3c2)[C@H](C)[C@@H](O)[C@]1(C)O` [Compound 7], the concentration for half-maximal inhibition (IC50) (commonly the concentration that inhibits the measured activity by half) worked out at 0.143 µg/mL (≈ 0.141 µM) in experiment [1], 0.156 µg/mL (≈ 0.154 µM) in experiment [2] and 0.298 µg/mL (≈ 0.294 µM) in experiment [3].

On to `CC[C@H]1OC(=O)[C@H](C)[C@@H](O[C@H]2C[C@@](C)(OC)[C@@H](O)[C@H](C)O2)[C@H](C)[C@@H](O[C@@H]2O[C@H](C)C[C@H](N(C)C)[C@H]2O)[C@](C)(O)C[C@@H](C)CN(CCCN(CCC#N)C(=O)Nc2ccc(Cl)cc2Cl)[C@H](C)[C@@H](O)[C@]1(C)O` [Compound 11], for which the IC50 came to 0.161 µg/mL (≈ 0.156 µM) in experiment [1], 0.276 µg/mL (≈ 0.267 µM) in experiment [2] and 0.217 µg/mL (≈ 0.21 µM) in experiment [3].

Regarding `CC[C@H]1OC(=O)[C@H](C)[C@@H](O[C@H]2C[C@@](C)(OC)[C@@H](O)[C@H](C)O2)[C@H](C)[C@@H](O[C@@H]2O[C@H](C)C[C@H](N(C)C)[C@H]2O)[C@](C)(O)C[C@@H](C)CN(CCCNC(=S)NCCc2ccccc2)[C@H](C)[C@@H](O)[C@]1(C)O` [Compound 14], the figures for the concentration for half-maximal inhibition (IC50) in experiment [1], in experiment [2] and in experiment [3] were 0.215 µg/mL (≈ 0.225 µM), 0.232 µg/mL (≈ 0.242 µM) and 0.18 µg/mL (≈ 0.188 µM), respectively.

For `CC[C@H]1OC(=O)[C@H](C)[C@@H](O[C@H]2C[C@@](C)(OC)[C@@H](O)[C@H](C)O2)[C@H](C)[C@@H](O[C@@H]2O[C@H](C)C[C@H](N(C)C)[C@H]2O)[C@](C)(O)C[C@@H](C)CN(CCCNC(=S)NCCCc2ccccc2)[C@H](C)[C@@H](O)[C@]1(C)O` [Compound 3], the IC50 in experiment [1] stood at 0.117 µg/mL (≈ 0.12 µM); in experiment [2], 0.176 µg/mL (≈ 0.181 µM); in experiment [3], 0.112 µg/mL (≈ 0.116 µM).

Consider `CC[C@H]1OC(=O)[C@H](C)[C@@H](O[C@H]2C[C@@](C)(OC)[C@@H](O)[C@H](C)O2)[C@H](C)[C@@H](O[C@@H]2O[C@H](C)C[C@H](N(C)C)[C@H]2O)[C@](C)(O)C[C@@H](C)CN(CCCN(CCC#N)C(=O)NC(C)C)[C@H](C)[C@@H](O)[C@]1(C)O` [Compound 19], for which the IC50 in experiment [1] is 1.19 µg/mL (≈ 1.28 µM); in experiment [2], more than 0.797 µg/mL; in experiment [3] it was more than 1.76 µg/mL.

On to `CC[C@H]1OC(=O)[C@H](C)[C@@H](O[C@H]2C[C@@](C)(OC)[C@@H](O)[C@H](C)O2)[C@H](C)[C@@H](O[C@@H]2O[C@H](C)C[C@H](N(C)C)[C@H]2O)[C@](C)(O)C[C@@H](C)CN(CCCNC(=O)NC(C)c2cccc3ccccc23)[C@H](C)[C@@H](O)[C@]1(C)O` (stereo partly drawn) [Compound 6], for which the IC50 in experiment [1] was 0.118 µg/mL (≈ 0.119 µM); in experiment [2] it was 0.292 µg/mL (≈ 0.295 µM); in experiment [3], 0.246 µg/mL (≈ 0.249 µM).

Regarding `CC[C@H]1OC(=O)[C@H](C)[C@@H](O[C@H]2C[C@@](C)(OC)[C@@H](O)[C@H](C)O2)[C@H](C)[C@@H](O[C@@H]2O[C@H](C)C[C@H](N(C)C)[C@H]2O)[C@](C)(O)C[C@@H](C)CN(CCCNC(=S)N(CCC#N)CCCc2ccccc2)[C@H](C)[C@@H](O)[C@]1(C)O` [Compound 4], the IC50 was 0.0541 µg/mL (≈ 0.0529 µM) in experiment [1], 0.228 µg/mL (≈ 0.223 µM) in experiment [2] and 0.0768 µg/mL (≈ 0.0751 µM) in experiment [3].

Regarding `CC[C@H]1OC(=O)[C@H](C)[C@@H](O[C@H]2C[C@@](C)(OC)[C@@H](O)[C@H](C)O2)[C@H](C)[C@@H](O[C@@H]2O[C@H](C)C[C@H](N(C)C)[C@H]2O)[C@](C)(O)C[C@@H](C)CN(CCCN(CCC#N)C(=O)Nc2cccc3ccccc23)[C@H](C)[C@@H](O)[C@]1(C)O` [Compound 15], the IC50 is 0.263 µg/mL (≈ 0.259 µM) in experiment [1], 0.539 µg/mL (≈ 0.531 µM) in experiment [2] and 1.42 µg/mL (≈ 1.4 µM) in experiment [3].

`CC[C@H]1OC(=O)[C@H](C)[C@@H](O)[C@H](C)[C@@H](O[C@@H]2O[C@H](C)C[C@H](N(C)C)[C@H]2O)[C@](C)(O)C[C@@H](C)CN(CCCNC(=S)NCCCc2ccccc2)[C@H](C)[C@@H](O)[C@]1(C)O` [Compound 28]: the IC50 in experiment [1] came out at 0.255 µg/mL (≈ 0.314 µM); in experiment [2], 0.864 µg/mL (≈ 1.06 µM); in experiment [3], 0.41 µg/mL (≈ 0.506 µM).

For the compound `CC[C@H]1OC(=O)[C@H](C)[C@@H](O[C@H]2C[C@@](C)(OC)[C@@H](O)[C@H](C)O2)[C@H](C)[C@@H](O[C@@H]2O[C@H](C)C[C@H](N(C)C)[C@H]2O)[C@](C)(O)C[C@@H](C)CN(CCCNC(=O)Nc2ccccc2C(F)(F)F)[C@H](C)[C@@H](O)[C@]1(C)O` [Compound 2], the IC50 in experiment [1] came out at 0.23 µg/mL (≈ 0.234 µM); in experiment [2], 0.311 µg/mL (≈ 0.318 µM); in experiment [3], 0.36 µg/mL (≈ 0.368 µM).

With `CC[C@H]1OC(=O)[C@H](C)[C@@H](O)[C@H](C)[C@@H](O[C@@H]2O[C@H](C)C[C@H](N(C)C)[C@H]2O)[C@](C)(O)C[C@@H](C)CN(CCCNC(=O)Nc2cccc3ccccc23)[C@H](C)[C@@H](O)[C@]1(C)O` [Compound 30], the IC50 in experiment [1] was 0.508 µg/mL (≈ 0.633 µM); in experiment [2] it was more than 0.797 µg/mL; in experiment [3], 0.471 µg/mL (≈ 0.586 µM).

In the case of `CC[C@H]1OC(=O)[C@H](C)[C@@H](O[C@H]2C[C@@](C)(OC)[C@@H](O)[C@H](C)O2)[C@H](C)[C@@H](O[C@@H]2O[C@H](C)C[C@H](N(C)C)[C@H]2O)[C@](C)(O)C[C@@H](C)CN(CCCN(CCC#N)C(=O)Nc2cc(OC)c(OC)c(OC)c2)[C@H](C)[C@@H](O)[C@]1(C)O` [Compound 24], in experiment [1], the “IC50 TM91C235” value amounted to 0.2719 µg/mL (≈ 0.258 µM). Also, the “IC50 D6” value in experiment [2] amounted to 0.4872 µg/mL (≈ 0.462 µM). Besides, the “IC50 W2” value in experiment [3] was determined as 1.7881 µg/mL (≈ 1.7 µM).

In the case of `CC[C@H]1OC(=O)[C@H](C)[C@@H](O[C@H]2C[C@@](C)(OC)[C@@H](O)[C@H](C)O2)[C@H](C)[C@@H](O[C@@H]2O[C@H](C)C[C@H](N(C)C)[C@H]2O)[C@](C)(O)C[C@@H](C)CN(CCCNC(=O)Nc2ccc3ccccc3c2)[C@H](C)[C@@H](O)[C@]1(C)O` [Compound 1], the concentration for half-maximal inhibition (IC50) was 0.0832 µg/mL (≈ 0.0866 µM) in experiment [1], 0.145 µg/mL (≈ 0.151 µM) in experiment [2] and 0.141 µg/mL (≈ 0.146 µM) in experiment [3].

Turning to `CC[C@H]1OC(=O)[C@H](C)[C@@H](O)[C@H](C)[C@@H](O[C@@H]2O[C@H](C)C[C@H](N(C)C)[C@H]2O)[C@](C)(O)C[C@@H](C)CN(CCCNC(=O)Nc2ccc3ccccc3c2)[C@H](C)[C@@H](O)[C@]1(C)O` [Compound 27], the 50% inhibitory concentration (IC50) in experiment [1] was determined as 0.312 µg/mL (≈ 0.389 µM); in experiment [2], 0.716 µg/mL (≈ 0.891 µM); in experiment [3] it was 0.467 µg/mL (≈ 0.582 µM).

As for `CC[C@H]1OC(=O)[C@H](C)[C@@H](O[C@H]2C[C@@](C)(OC)[C@@H](O)[C@H](C)O2)[C@H](C)[C@@H](O[C@@H]2O[C@H](C)C[C@H](N(C)C)[C@H]2O)[C@](C)(O)C[C@@H](C)CN(CCCNC(=S)NCc2ccccc2)[C@H](C)[C@@H](O)[C@]1(C)O` [Compound 13], the IC50 in experiment [1] stood at 0.189 µg/mL (≈ 0.2 µM); in experiment [2] it was 0.291 µg/mL (≈ 0.309 µM); in experiment [3] it was 0.18 µg/mL (≈ 0.191 µM).

For `CC[C@H]1OC(=O)[C@H](C)[C@@H](O[C@H]2C[C@@](C)(OC)[C@@H](O)[C@H](C)O2)[C@H](C)[C@@H](O[C@@H]2O[C@H](C)C[C@H](N(C)C)[C@H]2O)[C@](C)(O)C[C@@H](C)CN(CCCNC(=O)NCc2ccccc2)[C@H](C)[C@@H](O)[C@]1(C)O` [Compound 17], the IC50 in experiment [1] stood at 0.278 µg/mL (≈ 0.3 µM); in experiment [2] it was 0.566 µg/mL (≈ 0.612 µM); in experiment [3], 0.351 µg/mL (≈ 0.379 µM).
